In patent publication US7699801B2, “Advanced genetic vaccines” (priority 1995, dated 2010):

Test system: human carcino embryonic antigen (CEA)
Test: CEA-specific IgG1/IgG2a serum antibody ELISA after particle-mediated DNA immunization
Assay type: in vivo, mouse
Conditions: Balb/c mice, sera four weeks after treatment
Source text: The adjuvant and the nucleic acid molecule containing the sequence encoding the antigen of interest were co-administered via particle-mediated delivery using a gene gun. The particular antigen used for this example was the human carcino embryonic antigen (“CEA”), a human tumor antigen widely used in experiments investigating cancer therapeutic treatments. […] Without an adjuvant, Th2 type CEA-specific antibodies (IgG1) are detected at levels more than twenty-fold higher than the levels of Th1 type CEA-specific antibodies (IgG2a) in Balb/c mice.
For this protocol, a plasmid construct containing a coding region for the CEA antigen under the control of the cytomegalovirus immediate early promoter (CMV) with the CMV intron A between the promoter and the coding region was used. To form the composition, 64 μg of the plasmid, which was designated WRG7083, in 120 μL of water was added to 32 milligrams of 0.9 micron gold beads in an Eppendorf tube, i.e., 2 μg DNA/mg gold. Next, 13.5 μL of ammonium acetate solution and 135 μL of isopropanol were added, and the tube was vortexed briefly. The mixture was incubated for 15 minutes at −20° C. to precipitate the DNA onto the gold. The DNA coated beads were pelleted by a ten second spin and the supernatants were removed. The gold/DNA pellets were washed four times by vortexing in 1 mL ethanol, microfuging ten seconds, and removing supernatants. […]

Sequence of human carcino embryonic antigen (CEA) (P06731 35-676): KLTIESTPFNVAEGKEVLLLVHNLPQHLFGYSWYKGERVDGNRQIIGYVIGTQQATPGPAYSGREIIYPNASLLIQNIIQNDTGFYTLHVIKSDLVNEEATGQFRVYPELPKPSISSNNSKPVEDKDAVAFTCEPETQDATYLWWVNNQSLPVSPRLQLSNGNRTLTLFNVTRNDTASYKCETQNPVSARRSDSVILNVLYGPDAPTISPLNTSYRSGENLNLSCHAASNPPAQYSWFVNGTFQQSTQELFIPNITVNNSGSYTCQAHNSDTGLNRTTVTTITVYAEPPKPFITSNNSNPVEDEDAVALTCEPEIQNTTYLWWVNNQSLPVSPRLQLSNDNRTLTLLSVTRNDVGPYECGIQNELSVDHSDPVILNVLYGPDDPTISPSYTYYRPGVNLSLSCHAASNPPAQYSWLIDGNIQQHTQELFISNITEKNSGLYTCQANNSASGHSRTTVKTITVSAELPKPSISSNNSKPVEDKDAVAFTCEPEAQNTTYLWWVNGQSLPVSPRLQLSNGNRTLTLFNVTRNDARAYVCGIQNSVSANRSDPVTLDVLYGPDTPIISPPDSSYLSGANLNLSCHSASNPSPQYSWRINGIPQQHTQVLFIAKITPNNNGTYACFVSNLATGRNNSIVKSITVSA

## monophosphoryl lipid A [MPL]
0.2 mg/mL MPL on WRG7083 DNA-coated gold particles, gene gun delivery
  ratio of IgG1 to IgG2a CEA-specific antibodies: 4.5
MPL stock swabbed on skin prior to gene gun delivery of WRG7083 DNA
  ratio of IgG1 to IgG2a CEA-specific antibodies: about 4.0
